In US11028137B2, “Mutant islet amyloid polypeptides with improved solubility and methods for using the same” (priority 2017, dated 2021):
Where a SMILES comes first, the peptide text is derived from it.

Legend:
[1] = pH 7
Description: 100 μL each solution was obtained immediately following dissolution with Novolin-N® and was centrifuged using a Beckman Coulter Microfuge (22R Centrifuge) at 24° C. for 20 minutes. The relative centrifugal force used was 1.75×104 g. Aliquots of each sample were immediately frozen and lyophilized. The remaining portion of each sample was not centrifuged and were incubated at 25° C. without stirring. Samples were collected again following the same procedures after 1 day, 7 days and 30 days. Dry samples were redissolved in 4:1 HPLC buffer mix (4A:1B, below) and immediately injected for liquid chromatography-mass spectroscopy (LC-MS) measurements. The HPLC buffers were (A) H2O (0.1% acetic acid and 0.02% TFA) and (B) CH3CN (0.1% acetic acid and 0.02% TFA). Solubility of each co-formulated sample was determined by measuring the absorbance from the liquid chromatogram traces at 215±8 nm and at 277±8 nm at each time point tested. points (0 hours, 24 hours, 7 days and 30 days post-formulation).

[2] = Thioflavin-T fluorescence assay of amyloid formation kinetics; type: physicochemical; conditions: 16 μM peptide, 10 mM PBS pH 7.4, 25° C., no stirring; for amyloid formation monitored by thioflavin-T fluorescence: 1 week and 6 week incubations
Description: Sample Preparation. Each peptide was dissolved into 100% hexafluoroisoproponal (HFIP) to make a 0.5 mM stock solution. Stock solutions were filtered using […] Acrodisc syringe filter with a GHP membrane and the required amount of peptide was lyophilized overnight to remove HFIP. Dry peptide was dissolved into the appropriate buffer for the fluorescence assays. Fluorescence Assays. Thioflavin-T binding assays, conducted without HFIP or stirring at 25° C., were utilized to monitor amyloid formation kinetics. Fluorescence measurements were performed using a Spectramax Gemini EM plate reader. Corning 96-well non-binding surface black plates with lids were used and were sealed with polyethylene sealing tape. Samples were prepared by dissolving dry peptide into 10 mM PBS buffer (pH 7.4) and 32 μM thioflavin-T solution immediately before the measurement. Thioflavin-T fluorescence was measured with 450 nm excitation and emission at 485 nm was monitored. The final concentrations were 16 μM peptides. After creating the mutant-hIAPP polypeptides of the present disclosure, applicants tested the propensity of the different analogs to form amyloid at pH 7.4 using thioflavin-T fluorescence assays (FIGS. 2A-D) and TEM (FIGS. 3A-E). […] Amyloid formation follows a sigmoidal time course consisting of a lag phase in which few, if any, fibrils are formed, followed by a growth phase and a saturation phase in which amyloid fibrils are in equilibrium with soluble peptide.

[3] = pH 7.4
Description: Dry peptides were dissolved into 10 mM PBS buffer at pH 7.4 at different initial concentrations, and were incubated for 7 days at 25° C. without stirring. Each sample was then centrifuged using a Beckman Coulter Microfuge 22R Centrifuge at 24° C. for 20 min. The relative centrifugal force used was 1.75×10^4 g. Solubility of each sample was approximated by measuring the absorbance of the corresponding supernatant at 280 nm measured using a Beckman Coulter DU 730 UV/Vis Spectrophotometer.
Each peptide tested was incubated in 10 mM PBS buffer at pH 7.4 for 7 days at three different concentrations (100 μM, 500 μM and 1 mM) and the solution was then centrifuged. The apparent solubility was represented by the absorbance of the supernatant of each sample measured at 280 nm. The extinction coefficients of all polypeptides are very similar at 280 nm since they all contain the same aromatic residues and each contains a disulfide bond. […] A peptide which is soluble at 1 mM and above will show a linear dependence of absorbance on initial concentration. A peptide which is less soluble will deviate from linearity. The peptides were centrifuged after 7 days and their apparent solubility measured by measuring the absorbance at 280 nm of the supernatant of each solution. The apparent concentration refers to the concentration which would be obtained if all of the peptide dissolved. The absorbance of the supernatant is directly proportion to the amount of peptide in solution.

[4] = Transmission electron microscopy (TEM) of amyloid aggregates; type: physicochemical; conditions: for amyloid aggregates in TEM images: after 7 days of incubation, end of kinetic experiment
Description: Transmission Electron Microscopy (TEM). TEM images were recorded using an FEI Bio TwinG^2 Transmission Electron Microscope at the central microscopy center at Stony Brook University. 15 μL aliquots of the samples used for fluorescence assays were removed at the end of each kinetic experiment, blotted on a carbon formvar-coated 300-mesh copper grid for 1 min and then negatively stained with saturated uranyl acetate for 1 min. Images were taken at a 68,000× magnification and 100 nm under focus. Mutant-hIAPP polypeptides of the present disclosure were further analyzed using TEM. […] In contrast, no amyloid fibrils were formed after a 1 week (FIGS. 3B-E, left) or 6 week (FIGS. 3B-E, right) culture with the any of the mutant-hIAPP analogs tested.

[5] = molecular target: T1, human amylin receptor (hAMY1(a)) (Homo sapiens, UniProt O60894+P30988); assay: cAMP production (LANCE cAMP assay) in transfected Cos-7 cells; type: cell-based; conditions: cAMP production, Cos-7 cells expressing hAMY1(a); mean ± spread; read-out: Human Amylin1(a) receptor binding data pEC50 (converted)
T1 construct: expressed in transfected cells; host or cells: Cos-7 cells, transient transfection with PEI, pcDNA3.1 vectors
T1 sequence (O60894 27-148 partner, one chain of several): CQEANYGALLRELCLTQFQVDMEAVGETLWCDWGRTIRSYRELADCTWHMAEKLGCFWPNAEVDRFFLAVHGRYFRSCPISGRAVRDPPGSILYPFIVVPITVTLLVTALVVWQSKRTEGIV
Description: (§1) Cell Culture and Transfection. Cos-7 cells were cultured and transfected for receptor activity assays as previously described in Bailey, R. J., and Hay, D. L. Peptides (2006) 27, pp. 1367-1375, the entire contents of which is incorporated herein by reference. Specifically, cells were cultured in Dulbucco's modified eagle medium (DMEM) with 8% heat-inactivated fetal bovine serum (FBS) and kept in a 37° C. humidified 95% air/5% CO2 incubator. Cells were plated at a density of 18,000-20,000 cells/well (depending on cell passage) in 96-well culture plate and returned to the incubator for approximately 18-24 hours. Transient transfections were carried out using polyethyleneimine (PEI) as described previously and maintained at 37° C. in a humidified 95% air/5% CO2 incubator for 36-48 hours. All DNA constructs used in this these were in pcDNA3.1 vectors.
(§2) cAMP Assay: Measurement of intracellular cAMP was achieved using a time-resolved fluorescent resonance energy transfer assay (LANCE cAMP assay, PerkinElmer), similar to the previously described Alphascreen assay as described in Gingell, J. J., et al. Peptides (2010) 31, pp. 1400-1404, with the following changes. Following stimulation with peptide agonist, cAMP assay media from the wells was thoroughly aspirated and 50 μl of ice-cold absolute ethanol added to each well. Plates were then placed in a −30° C. freezer for 10 minutes or overnight prior to assay, then removed and allowed to air dry in a fume hood for 1-2 hours. After ethanol evaporated from the plates, 50 μl of LANCE detection buffer (lysis buffer, 0.35% Triton X-100, 50 mM HEPES and 10 mM calcium chloride in ddH2O, pH 7.4) was added per well and left on a plate shaker for 10-15 minutes at room temperature. Meanwhile, a cAMP standard curve was generated using LANCE detection buffer and a serially diluted cAMP standard (50 μM) ranging from 1 μM to 10 pM. The serially diluted cAMP standards (5 μl) and cell lysates (5 μl) were transferred into 384-well opti-plates and sealed with a Sealplate®-A-384-well microplate adhesive film and briefly centrifuged (10 seconds, 500 rpm, 23° C.). A 1:200 dilution of LANCE assay Alexa Fluor® 647 anti-cAMP antibody was prepared in detection buffer and 5 μl added to each well. Plates were sealed and briefly centrifuged again (10 seconds, 500 rpm, 23° C.) and left to incubate, sealed for 30 minutes at room temperature. During this incubation, detection mix was made up consisting of detection buffer, Europium-W8044 labelled streptavidin (1:4500) and biotin-cAMP (1:1500). After 30 minutes incubation, 10 μl of detection mix was added to each well, plates were centrifuged (30 seconds, 500 rpm, 23° C.), sealed and left to incubate for 1 hour at room temperature. Plates were read after an overnight incubation on an Envision plate reader. A standard curve was included in each experiment to ensure accurate quantification of cAMP.
(§3) Data Analysis for Receptor Assays: Data were derived from independent experiments for statistical analysis and all experiments were performed and replicated. Quantification of cAMP was obtained from a standard curve included in each experiment and plotted using the software GraphPad Prism 6.0 (GraphPad Software Inc, San Diego, Calif., USA) with a non-linear regression 3-parameter logistic equation with a Hill Slope of 1 to determine the pEC50. The pEC50 values from the fits were combined from different experimental days and statistically tested for difference from the WT peptide using the Student's t-test with statistical significance defined as * p<0.05, ** p<0.01, *** p<0.001. Due to variability in amount of cAMP produced between experimental days, data were normalized to the control peptide for each experiment to obtain Emax values. For each analogue, data were normalized to the maximum (Emax) and minimum (Emin) responses of h-amylin. […]

[6] = molecular target: T2, human calcitonin receptor (hCT(a)) (Homo sapiens, UniProt P30988); assay: as above; type: cell-based; conditions: cAMP production, Cos-7 cells expressing hCT(a); mean ± spread; read-out: Human calcitonin receptor binding data pEC50 (converted)
T2 construct: expressed in transfected cells; host or cells: Cos-7 cells, transient transfection with PEI, pcDNA3.1 vectors
T2 sequence (P30988 25-474): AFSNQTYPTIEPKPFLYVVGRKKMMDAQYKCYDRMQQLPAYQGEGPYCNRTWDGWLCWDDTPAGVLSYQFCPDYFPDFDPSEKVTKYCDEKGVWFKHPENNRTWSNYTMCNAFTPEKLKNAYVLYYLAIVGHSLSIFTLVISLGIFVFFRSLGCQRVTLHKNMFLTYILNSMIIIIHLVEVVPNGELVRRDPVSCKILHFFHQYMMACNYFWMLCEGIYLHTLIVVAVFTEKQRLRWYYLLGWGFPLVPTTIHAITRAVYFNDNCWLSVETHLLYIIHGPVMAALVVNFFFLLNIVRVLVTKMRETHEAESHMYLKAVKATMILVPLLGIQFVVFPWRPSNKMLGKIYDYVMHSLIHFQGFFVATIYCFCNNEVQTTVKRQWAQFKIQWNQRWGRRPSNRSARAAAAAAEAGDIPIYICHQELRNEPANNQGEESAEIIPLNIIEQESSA
Description: as §1, §2, §3

| SMILES | solubility co-formulated with Novolin-N (absorbance at 215 nm and 277 nm, LC-MS) [1] | amyloid formation monitored by thioflavin-T fluorescence [2] | solubility at neutral pH (absorbance of supernatant at 280 nm) [3] | amyloid aggregates in TEM images [4] | EC50 [5] [nM] | EC50 [6] [nM] | time at which amyloid formation reaches the saturation phase ([2]; 32 μM thioflavin-T) [h] | amyloid fibrils in TEM images ([4]; after 1 week and 6 week time periods) |
| --- | --- | --- | --- | --- | --- | --- | --- | --- |
| CC[C@H](C)[C@H](NC(=O)[C@H](C)NC(=O)CNC(=O)[C@H](Cc1ccccc1)NC(=O)[C@H](CC(N)=O)NC(=O)[C@H](CCCCN)NC(=O)[C@H](CO)NC(=O)[C@H](CO)NC(=O)[C@H](Cc1c[nH]cn1)NC(=O)[C@@H](NC(=O)[C@H](CC(C)C)NC(=O)[C@H](Cc1ccccc1)NC(=O)[C@H](CC(N)=O)NC(=O)[C@H](C)NC(=O)[C@H](CC(C)C)NC(=O)[C@H](CCCNC(=N)N)NC(=O)[C@H](CCC(N)=O)NC(=O)[C@@H](NC(=O)[C@H](C)NC(=O)[C@@H]1CSSC[C@H](NC(=O)[C@@H](N)CCCCN)C(=O)N[C@@H](CC(N)=O)C(=O)N[C@@H]([C@@H](C)O)C(=O)N[C@@H](C)C(=O)N[C@@H]([C@@H](C)O)C(=O)N1)[C@@H](C)O)C(C)C)C(=O)N[C@@H](CC(C)C)C(=O)N[C@@H](CO)C(=O)N[C@@H](CO)C(=O)N[C@H](C(=O)N[C@@H](CC(N)=O)C(=O)N[C@H](C(=O)NCC(=O)N[C@@H](CO)C(=O)N[C@@H](CCCCN)C(=O)N[C@H](C(=O)N[C@@H](Cc1ccc(O)cc1)C(N)=O)[C@@H](C)O)C(C)C)[C@@H](C)O [SEQ ID NO: 7] (HELM PEPTIDE1{K.C.N.T.A.T.C.A.T.Q.R.L.A.N.F.L.V.H.S.S.K.N.F.G.A.I.L.S.S.T.N.V.G.S.K.T.Y.[am]}$PEPTIDE1,PEPTIDE1,2:R3-7:R3$$$V2.0) | significantly higher absorbance when compared to both wild-type hIAPP and paramlintide | none of the mutant hIAPP polypeptides forms amyloid | more substantially soluble than wild-type hIAPP | no aggregates are observed | 0.741 | 2.4 | – | – |
| CC(C)C[C@H](NC(=O)[C@H](CCCNC(=N)N)NC(=O)[C@H](CCC(N)=O)NC(=O)[C@@H](NC(=O)[C@H](C)NC(=O)[C@@H]1CSSC[C@H](NC(=O)[C@@H](N)CCCCN)C(=O)N[C@@H](CC(N)=O)C(=O)N[C@@H]([C@@H](C)O)C(=O)N[C@@H](C)C(=O)N[C@@H]([C@@H](C)O)C(=O)N1)[C@@H](C)O)C(=O)N[C@@H](C)C(=O)N[C@@H](CC(N)=O)C(=O)N[C@@H](Cc1ccccc1)C(=O)N[C@@H](CC(C)C)C(=O)N[C@H](C(=O)N[C@@H](Cc1c[nH]cn1)C(=O)N[C@@H](CO)C(=O)N[C@@H](CO)C(=O)N[C@@H](CCCCN)C(=O)N[C@@H](CC(N)=O)C(=O)N[C@@H](Cc1ccccc1)C(=O)N1CCC[C@H]1C(=O)N[C@@H](C)C(=O)N1CCC[C@H]1C(=O)N[C@@H](CC(C)C)C(=O)N[C@@H](CO)C(=O)N[C@@H](CO)C(=O)N[C@H](C(=O)N[C@@H](CC(N)=O)C(=O)N[C@H](C(=O)NCC(=O)N[C@@H](CO)C(=O)N[C@@H](CCCCN)C(=O)N[C@H](C(=O)N[C@@H](Cc1ccc(O)cc1)C(N)=O)[C@@H](C)O)C(C)C)[C@@H](C)O)C(C)C [SEQ ID NO: 8] (HELM PEPTIDE1{K.C.N.T.A.T.C.A.T.Q.R.L.A.N.F.L.V.H.S.S.K.N.F.P.A.P.L.S.S.T.N.V.G.S.K.T.Y.[am]}$PEPTIDE1,PEPTIDE1,2:R3-7:R3$$$V2.0) | significantly higher absorbance when compared to both wild-type hIAPP and paramlintide | none of the mutant hIAPP polypeptides forms amyloid | more substantially soluble than wild-type hIAPP | no aggregates are observed | 1.78 | 10.7 | – | – |
| CC[C@H](C)[C@H](NC(=O)[C@H](C)NC(=O)CNC(=O)[C@H](Cc1ccccc1)NC(=O)[C@H](CC(N)=O)NC(=O)[C@H](CC(N)=O)NC(=O)[C@H](CO)NC(=O)[C@H](CO)NC(=O)[C@H](Cc1c[nH]cn1)NC(=O)[C@@H](NC(=O)[C@H](CC(C)C)NC(=O)[C@H](Cc1ccccc1)NC(=O)[C@H](CC(N)=O)NC(=O)[C@H](C)NC(=O)[C@H](CC(C)C)NC(=O)[C@H](CCCNC(=N)N)NC(=O)[C@H](CCC(N)=O)NC(=O)[C@@H](NC(=O)[C@H](C)NC(=O)[C@@H]1CSSC[C@H](NC(=O)[C@@H](N)CCCCN)C(=O)N[C@@H](CC(N)=O)C(=O)N[C@@H]([C@@H](C)O)C(=O)N[C@@H](C)C(=O)N[C@@H]([C@@H](C)O)C(=O)N1)[C@@H](C)O)C(C)C)C(=O)N[C@@H](CC(C)C)C(=O)N[C@@H](CO)C(=O)N[C@@H](CO)C(=O)N[C@H](C(=O)N[C@@H](CC(N)=O)C(=O)N[C@H](C(=O)NCC(=O)N[C@@H](CO)C(=O)N[C@@H](CC(N)=O)C(=O)N[C@H](C(=O)N[C@@H](Cc1ccc(O)cc1)C(N)=O)[C@@H](C)O)C(C)C)[C@@H](C)O [Wild-type hIAPP, reference compound] | – | forms significant amounts of amyloid | – | extensive amounts of amyloid fibers | – | – | ≤ 30 | typical amyloid fibril morphology |
